# According to article PMC6887851, “A Chemical-Intervention Strategy To Circumvent Peptide Hydrolysis by D-Stereoselective Peptidases” (Journal of Medicinal Chemistry, 2019):
# Where a SMILES comes first, the peptide text is derived from it. [ ]: non-standard residue; d: D form. The star is where a group is joined. dDab = NCC[C@@H](N)C(=O)O; Octanoyl = CCCCCCCC(=O)*; Dab = NCC[C@H](N)C(=O)O
# How the values were obtained:
# [1] = test system: S. aureus NCTC 10788; assay type: cell-based, Staphylococcus aureus; settings: NCTC 10788, 18 h
# Protocol: (§1) Minimum inhibitory concentrations (MICs) were determined according to Clinical and Standards Laboratory Institute (CLSI) guidelines. Briefly, peptides were dissolved in Muller–Hinton broth (MHB) and serial dilutions made across a 96-well plate. Each well was inoculated with a suspension of the required bacterial strain to reach a final inoculum of 5 × 10^5 colony forming units per mL. The MIC was taken as the lowest concentration with no visible (cloudy suspension) growth after 18 h. The antimicrobial activity of each peptide was determined in duplicate in three independent experiments and found to be consistent across all experiments.
# [2] = test system: D-peptidase BogQ; assay: Peptide hydrolysis assay with BogQ (UPLC–MS cleavage ratio); assay type: in vitro ADME; settings: BogQ 20 nM, substrate 50 μM, 25% PBS buffer pH 7.4, 37 °C, end-point after 1 h incubation, cleavage ratio by UPLC–MS, two independent experiments
# Protocol: (§2) For expression of D-peptidases, the recombinant strain E. coli BL21 carrying pET-28a-bogQ or pET-24a-triFpep was cultured overnight at 37 °C in LB medium. This was diluted 1:100 into 100 mL of LB medium containing 50 μg/mL kanamycin and incubated at 37 °C until OD600 = 0.4–0.6 was reached. The culture was incubated at 15 °C for 30 min, and isopropyl β-D-1-thiogalactopyranoside was added to a final concentration of 200 μM.[17] The target proteins purified using Ni-NTA purification. The assay mixture (total volume 30 μL in 25% PBS buffer, pH 7.4), containing purified protein (BogQ, 20 nM or TriFpep 200 nM) and synthetic analogues (50 μM), was incubated for 1 h (BogQ) or 24 h (TriFpep) at 37 °C. Reactions were quenched with three volumes of cold methanol (90 μL) and centrifuged at 15 000 rpm for 10 min to precipitate protein. The supernatant (2 μL) was subjected to UPLC–MS analysis for the determination of cleavage ratios.[17] Assays were repeated in two independent experiments and results consistent across both.
# [3] = test system: E. coli NCTC 12241; assay type: cell-based, Escherichia coli; settings: NCTC 12241, 18 h
# Protocol: as §1
# [4] = test system: TriFpep (peptidase domain of D-peptidase TriF); assay: Peptide hydrolysis assay with TriFpep (UPLC–MS cleavage ratio); assay type: in vitro ADME, Paenibacillus polymyxa CICC10580; settings: Paenibacillus polymyxa; TriFpep 200 nM, substrate 50 μM, 25% PBS buffer pH 7.4, 37 °C, end-point after 24 h incubation, cleavage ratio by UPLC–MS, two independent experiments
# Protocol: Having determined that N- or α-methylation of position 9 in the tridecaptins substantially improves resistance to hydrolysis by BogQ, we next tested if modifying the 6 position could overcome TriF hydrolysis at D-Trp5. TriFpep, the soluble periplasmic peptidase domain of TriF, was used in these assays. […] Oct-TriA2(6-Sar) (20) and Oct-TriA2(6-Aib) (21) were synthesized and found to be completely resistant to TriF and retain strong activity (3.13 μg/mL) against E. coli. […] Discovering that a simple substitution of Ser6 with Sar or Aib provides complete TriF resistance with negligible loss in activity is a welcome development.
# as §2, with “Reactions were quenched with three volumes of cold methanol (90 μL) and centrifuged at 15 000 rpm for 10 min to precipitate protein. The supernatant (2 μL) was subjected to UPLC–MS analysis for the determination of cleavage ratios.[17] Assays were repeated in two independent experiments and results consistent across both.” left out
SMILES,MIC (μg/mL) Sa [1],"metabolised at 1 h, 50 μM [2]",MIC (μg/mL) Ec [3],metabolised at 24 h [4]
"CCCCCCCC(=O)N[C@@H](C(=O)N[C@@H](CCN)C(=O)NCC(=O)N[C@H](CO)C(=O)N[C@H](Cc1c[nH]c2ccccc12)C(=O)N[C@@H](CO)C(=O)N[C@@H](CCN)C(=O)N[C@H](CCN)C(=O)N[C@@H](Cc1ccccc1)C(=O)N[C@@H](CCC(=O)O)C(=O)N[C@H](C(=O)N[C@@H](C(=O)N[C@@H](C)C(=O)O)C(C)C)C(C)C)C(C)C [compound 14, Oct-TriA2 (2-Dab)] (Octanoyl-[dV][Dab]G[dS][dW]S[Dab][dDab]FEV[dV]A-OH)",>50 µg/mL,–,–,–
"CCCCCCCC(=O)N[C@@H](C(=O)N[C@H](CCN)C(=O)NCC(=O)N[C@H](CO)C(=O)N[C@H](Cc1c[nH]c2ccccc12)C(=O)N[C@@H](CO)C(=O)N[C@@H](CCN)C(=O)N[C@H](CCN)C(=O)NC(C)(Cc1ccccc1)C(=O)N[C@@H](CCC(=O)O)C(=O)N[C@H](C(=O)N[C@@H](C(=O)N[C@@H](C)C(=O)O)C(C)C)C(C)C)C(C)C (some centres unmarked) [compound 16, Oct-TriA2 (9-αMePhe)]",>50 µg/mL,39%,–,–
"CCCCCCCC(=O)N[C@@H](C(=O)N[C@H](CCN)C(=O)NCC(=O)N[C@H](CO)C(=O)N[C@H](Cc1c[nH]c2ccccc12)C(=O)N(C)CC(=O)N[C@@H](CCN)C(=O)N[C@H](CCN)C(=O)NC(C)(Cc1ccccc1)C(=O)N[C@@H](CCC(=O)O)C(=O)N[C@H](C(=O)N[C@@H](C(=O)N[C@@H](C)C(=O)O)C(C)C)C(C)C)C(C)C (some centres unmarked) [compound 23, Oct-TriA2 (6-Sar, 9-αMePhe)]",>50 µg/mL,39%,>50 µg/mL,0%
"CCCCCCCC(=O)N[C@@H](C(=O)N[C@H](CCN)C(=O)NCC(=O)N[C@H](CO)C(=O)N[C@H](Cc1c[nH]c2ccccc12)C(=O)N(C)CC(=O)N[C@@H](CCN)C(=O)N[C@H](CCN)C(=O)NC(C)(Cc1ccccc1)C(=O)N[C@@H](CCC(=O)O)C(=O)N[C@H](C(=O)N[C@@H](C(=O)N[C@@H](C)C(=O)O)[C@@H](C)CC)C(C)C)C(C)C (some centres unmarked) [compound 25, Oct-TriA2 (6-Sar, 9-αMePhe)]",>50 µg/mL,40%,>50 µg/mL,0%
